Experimental findings from PubChem BioAssay (NCI) are described below.

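Briefly, cells in 96-well plates were exposed to five compound concentrations for 48 h, and endpoints were estimated by linear interpolation. GI50 = concentration required for 50% inhibition of growth. TGI is the concentration that stops growth completely.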 Some results are limits rather than exact numbers.

Common to all, as to assay: NCI anticancer screen, dose series, 48 h
In assay [1] the test system is ACHN renal.
The test system of assay [2] is SW-620 colon.
Assay [3] has as its system HT29 colon.
Assay [4] relates to HS 578T breast.
Assay [5] has as its system KM12 colon.
Assay [6] deals with SN12C renal.
Assay [7] has as its system NCI-H23 lung.
In assay [8] the test system is MCF7 breast.
Assay [9] deals with SF-539 CNS.
Assay [10] deals with TK-10 renal.
The test system of assay [11] is NCI-H522 lung.

Regarding `C=CCOCn1cnc2c(N)ncnc21`, the TGI in assay [1], in assay [2], in assay [3], in assay [4], in assay [5] and in [6] was above 100 µM in each case. Further, the TGI in [7], in [8], in assay [9] and in assay [10] was above 100 µM throughout.

`c1ccc(C2=Nc3nc4ccccc4n3C(c3ccccc3)C2)cc1` (stereo unspecified): the TGI in assay [1], in [2], in [3], in [4], in [11] and in [5] was above 100 µM in each case. The TGI in [7], in assay [8], in [9] and in assay [10] was above 100 µM throughout.

For `CC(C)C(C/C=C1\CC(CO)(COC(=O)c2ccccc2)OC1=O)C(C)C` (stereo unspecified), the TGI in [1] amounted to 32 µM; in assay [2], 33.8 µM; in [3], 38.2 µM; in assay [4], 33.4 µM; in [11], 38.5 µM; in [5], 35.6 µM. Also, the TGI in assay [6] stood at 31.1 µM; in [7] it was 38 µM; in assay [8], 40.9 µM; in [10] it was 34.2 µM.

With `Cc1ccnc2[nH]c(-c3cccc(Cl)c3)cc(=O)c12`, the TGI was above 100 µM in assay [1]; above 100 µM in assay [2]; above 100 µM in [3]; above 100 µM in assay [4]; above 100 µM in assay [11]; above 47.8 µM in assay [5]. Besides, the TGI in assay [6], in assay [7], in assay [8] and in assay [10] was above 100 µM throughout.

For the compound `CN(C)c1nc(NC23CC4CC(CC(C4)C2)C3)nc(N(C)C)n1`, the TGI in assay [1] is above 100 µM; in assay [2], above 56.2 µM; in assay [3] it was above 100 µM; in assay [4], 56 µM; in assay [5] it was above 100 µM; in assay [6], above 85.4 µM. The TGI in [7] was above 100 µM; in [8], above 63.3 µM; in assay [9], above 79.6 µM; in [10], above 100 µM.

Consider `Cn1c(=O)c2c(nc3n(Cc4ccccc4)c(=O)c(NCCBr)cn23)n(C)c1=O`, for which the TGI is 32.3 µM in assay [1]; above 100 µM in assay [2]; above 100 µM in [3]; 76.6 µM in assay [4]; 62.8 µM in assay [11]; above 100 µM in [5]. Also, the TGI in assay [6] is above 100 µM; in [7] it was above 100 µM; in assay [8] it was above 100 µM; in [10] it was 44.5 µM.

Turning to `CN1C(=S)C(c2ccccc2)Sc2ccccc21` (stereo unspecified), the TGI in assay [1], in assay [4], in assay [11], in assay [5], in assay [6] and in assay [7] was above 100 µM each time. Besides, the TGI in [8] and in assay [10] was above 100 µM each time.

In the case of `O=[N+]([O-])/C(C(Cl)=C(Cl)Cl)=C1\NCCO1`, the TGI in [1] was above 100 µM; in assay [3], above 100 µM; in [4], 90.5 µM; in assay [11], above 100 µM; in [5], above 100 µM; in assay [6], above 100 µM. The TGI in assay [7], in assay [8], in assay [9] and in assay [10] was above 100 µM each time.

Turning to `CCOC(=O)Oc1cc2c(c(OC)c1OC)-c1ccc(SC)c(=O)cc1C(NC(=O)C(F)(F)F)CC2` (stereo unspecified), the TGI was 52.8 µM in [1]; above 100 µM in [2]; below 0.001 µM in assay [4]; 0.00253 µM in [11]; above 100 µM in assay [6]; 19.5 µM in [8]. Further, the GI50 in [6] was 0.0135 µM; in assay [7], below 0.001 µM.

As to `N#Cc1c(SCc2ccccc2)nc(-c2ccccc2)[nH]c1=S`, the TGI came to 63.3 µM in assay [1]; 60 µM in [2]; 60.1 µM in [3]; 92 µM in assay [4]; 34.5 µM in [5]; 82 µM in assay [6]. In addition, the TGI in assay [7] is 47.7 µM; in assay [8], 71 µM; in assay [9], 56.6 µM; in assay [10] it was above 100 µM.

Regarding `O=C(Nc1cccc(C(F)(F)F)c1)O/N=C(/Cl)CCl`, the TGI in assay [1], in [2], in assay [3], in assay [4], in [5] and in assay [6] was above 100 µM each time. Moreover, the TGI in [7], in assay [8], in [9] and in assay [10] was above 100 µM in each case.

For the compound `CCOC(=O)c1cc(C(=O)c2ccccc2)n2nc(-c3ccc(Cl)cc3)ccc12`, the TGI was 28.2 µM in assay [1]; above 100 µM in assay [2]; 64.2 µM in assay [3]; 41.5 µM in assay [4]; 43.7 µM in assay [11]; 53.5 µM in assay [5]. Besides, the TGI in assay [6] was 78.6 µM; in [7], above 100 µM; in [8] it was 53.2 µM; in [10], 47.8 µM.

Consider `CC(=O)N1CCc2c([nH]c3ccc(Br)cc23)C1c1ccccc1` (stereo unspecified), for which the TGI in [1], in [2], in [3], in [4], in assay [11] and in assay [5] was above 10 µM throughout. Also, the TGI in [6], in [8], in [9] and in assay [10] was above 10 µM throughout.

Consider `O=C(NCCC(F)(F)C(F)(F)C(F)(F)C(F)(F)F)NC1OC(CO)C(O)C(O)C1O` (stereo unspecified), for which the TGI in assay [1], in assay [2], in assay [3], in [4], in [5] and in assay [6] was above 100 µM throughout. Moreover, the TGI in [7], in [8], in [9] and in assay [10] was above 100 µM each time.
